For 36 compounds, inhibition results are on record in PubChem BioAssay AID624435 (The Scripps Research Institute Molecular Screening Center, 2012).

Active and inactive are the calls of the source.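 How the source made its calls: active means inhibition of 30% or more at 100 µM, inferred from the inactive rule; inactive means inhibition below 30% at 100 µM.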

The assay deals with Serine/threonine-protein phosphatase 5 (Homo sapiens) (UniProt P53041). As to the kind of experiment: PP5c phosphohistone dephosphorylation blockade – biochemical, radiolabel, round 5, powder samples, orthogonal assay for PP5 inhibitor project, late-stage follow-up (AID 624435). Conditions: purified PP5c, 33P-phosphohistone dephosphorylation, scintillation; at 50 µM; hits give high values.
Chain of Serine/threonine-protein phosphatase 5 (Homo sapiens) (P53041 whole entry, looked up): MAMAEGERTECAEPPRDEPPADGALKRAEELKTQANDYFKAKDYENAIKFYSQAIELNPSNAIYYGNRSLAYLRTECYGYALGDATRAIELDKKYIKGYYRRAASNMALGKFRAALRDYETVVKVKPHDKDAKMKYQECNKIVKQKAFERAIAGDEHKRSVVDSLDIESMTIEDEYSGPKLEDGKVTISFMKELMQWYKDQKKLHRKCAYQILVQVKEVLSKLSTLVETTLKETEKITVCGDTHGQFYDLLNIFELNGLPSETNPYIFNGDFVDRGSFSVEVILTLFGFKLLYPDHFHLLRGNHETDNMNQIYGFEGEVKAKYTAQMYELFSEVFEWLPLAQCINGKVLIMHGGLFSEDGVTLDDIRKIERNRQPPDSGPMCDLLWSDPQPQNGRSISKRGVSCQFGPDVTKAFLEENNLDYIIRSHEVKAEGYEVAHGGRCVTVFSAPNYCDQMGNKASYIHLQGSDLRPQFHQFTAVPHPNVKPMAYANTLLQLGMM
As to `Cc1cccc(-c2noc(C)c2C(=O)O)c1`, the inhibition (commonly the drop in the measured response relative to a control, in per cent) was -5.14% (inactive).

With `O=C(O)c1cn[nH]n1`, the inhibition is -0.0127% (inactive).

For `Cc1n[nH]nc1C(=O)O`, the inhibition was -4.84% (inactive).

On to `O=C(O)c1cc2cccnc2[nH]1`, for which the inhibition was -2.5% (inactive).

For `Cc1ccccc1-c1n[nH]nc1C(=O)O`, the inhibition was 39%.

Regarding `O=C(O)c1cc2ccccn2n1`, the inhibition is -0.0487% (inactive).

For `O=C(O)CCn1nnc2ccccc21`, the inhibition was 0.241% (inactive).

For `O=C(O)c1csc(Nc2ccccc2)n1`, the inhibition was -0.948% (inactive).

Take `O=C(O)c1nc(-n2cccc2)n[nH]1`: the inhibition is -1.61% (inactive).

As to `O=C(O)c1n[nH]nc1-c1ccccn1`, the inhibition was 31.5%.

For the compound `O=C(O)c1nnn(-c2ccccc2)c1-c1ccccc1`, the inhibition is 0.733% (inactive).

For `O=C(O)Cn1nnc2ccccc21`, the inhibition was 0.388% (inactive).

Consider `O=C(O)c1c(-c2ccccc2)nnc2ccccc12`, for which the inhibition is -0.78% (inactive).

As for `O=C(O)c1cn(Cc2ccccc2)nn1`, the inhibition was -4.42% (inactive).

As to `O=C(O)c1ncn[nH]1`, the inhibition is 2.61% (inactive).

With `O=C(O)c1n[nH]nc1-c1cccnc1`, the inhibition was 2.2% (inactive).

For the compound `CC(C)c1ccccc1-c1n[nH]nc1C(=O)O`, the inhibition was 30.2%.

`Cc1scc(C(=O)O)c1-c1ccccc1`: the inhibition was -4.13% (inactive).

For the compound `O=C(O)c1cnn2ccccc12`, the inhibition was -5.1% (inactive).

As for `O=C(O)c1ccccc1-c1nn[nH]n1`, the inhibition was 0.116% (inactive).

For the compound `CC(C)Oc1ccccc1-c1n[nH]nc1C(=O)O`, the inhibition was 67.5%.

Consider `O=C(O)c1n[nH]c2ccccc12`, for which the inhibition was -1.07% (inactive).

Take `O=C(O)c1nc2ncccn2n1`: the inhibition is -1.84% (inactive).

On to `Cc1cccc(-n2cnc(C(=O)O)c2)c1`, for which the inhibition is 2.84% (inactive).

For the compound `O=C(O)c1ccccc1-c1ccccc1`, the inhibition is -5.88% (inactive).

As to `O=C(O)c1nn(Cc2ccccc2)nc1Cl`, the inhibition is 0.71% (inactive).

Turning to `O=C(O)c1cc(-c2ccccc2)ncn1`, the inhibition was -6.61% (inactive).

Turning to `COC(=O)c1n[nH]nc1-c1ccccc1`, the inhibition is 1.67% (inactive).

For the compound `CCc1ccccc1-c1n[nH]nc1C(=O)O`, the inhibition was 44.3%.

As for `O=C(O)c1cccn1-c1ccccc1`, the inhibition is -3.17% (inactive).

With `O=C(O)c1cc(-c2ccccc2)n[nH]1`, the inhibition was -4.55% (inactive).

Turning to `O=C(O)c1n[nH]nc1-c1ccccc1-c1ccccc1`, the inhibition is 41.2%.

In the case of `O=C(O)c1cn[nH]c1-c1ccccc1`, the inhibition is -5.7% (inactive).

Regarding `O=C(O)c1ccccc1-n1cccc1`, the inhibition is -7.51% (inactive).

With `Cc1onc(C(=O)O)c1Cn1cccn1`, the inhibition is -2.66% (inactive).

As for `O=C(O)c1c[nH]cc1-c1ccccc1`, the inhibition was -2.04% (inactive).
